In data set [1] the test system is specific receptor target of brimonidine located in retina and iris-ciliary body.
For data set [2] the following is noted: in vivo.

Counter-ions that a name gives are not always drawn.

Regarding `Brc1c(NC2=NCCN2)ccc2nccnc12` [brimonidine, 5-bromo-6-(2-imidazolidinylideneamino)quinoxaline tartrate], the “brimonidine concentration required for optic neuroprotection” value in data set [1] is recorded as not below 2 nM. Besides, in data set [2], the vitreal clearance is 0.487 mL/day.

Values taken from patent publication US8969415B2, “Intraocular drug delivery systems” (Allergan, Inc., priority 2006, dated 2015).
